{"source": "patent US9625458B2", "about": "“Biosensor” (priority 2002, dated 2017)", "key": {"[1]": {"biological_target": "E. coli glucose binding protein variant W183C, fluorophore conjugate (Escherichia coli, UniProt P0AEE5, W206C)", "sequence (P0AEE5 24-332 W206C limits assumed)": "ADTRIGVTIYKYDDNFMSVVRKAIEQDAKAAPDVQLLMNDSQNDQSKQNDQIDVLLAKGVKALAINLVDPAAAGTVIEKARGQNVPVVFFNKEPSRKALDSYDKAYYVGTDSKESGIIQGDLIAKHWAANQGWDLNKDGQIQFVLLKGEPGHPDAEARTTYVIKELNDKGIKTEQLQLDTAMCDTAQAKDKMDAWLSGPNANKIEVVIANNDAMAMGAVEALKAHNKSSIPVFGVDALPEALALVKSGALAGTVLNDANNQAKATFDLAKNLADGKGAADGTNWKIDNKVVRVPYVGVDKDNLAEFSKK", "assay": "biochemical", "procedure": "The normal serum glucose range (euglycemia) of 4 to 6 mM is delimited by vertical lines.\n(§1) Molecular Cloning. […] Amplified products were cloned into one of the protein expression vectors pAED4 (Doering, “Functional and structural studies of a small f-actin binding domain” in Ph.D. thesis, Massachusetts Institute of Technology, 1992); pKK223-3 (Brosius & Holy, Proc. Natl. Acad. Sci. USA 81:6929-6933, 1984); or pET vectors (Studier et al., Meth. Enzymol. 185:60-89, 1990) (Novagen). N-terminal oligonucleotide primers were designed to clone only the processed periplasmic form, deleting the signal sequence. The C-terminal primer was designed to append the sequence Gly-Ser-Gly-(His)n or Gly-Ser-(His)n, where n=5, 6, or 10. Two tandem stop codons (TAATGA) follow the last His codon. […] Single amino acid substitutions were generated by overlapping PCR mutagenesis (Ho et al., Gene 77:51-59, 1989). All clones and mutations were confirmed by nucleotide sequencing. In the case of arabinose BP, the single cysteine in the wild type sequence was replaced by alanine to eliminate the possibility of reporter group conjugation to this thiol (Miller et al., J. Biol. Chem. 254:7521-7528, 1979). Additionally the sequence of Fe(III) BP was mutated by substitution of Glu57 with Asp to raise the Kd to a concentration range conveniently measured using Fe(III) citrate.\n(§2) Fluorophore conjugation to cysteine-substituted bPBPs. Thiol-reactive fluorophores obtained from Molecular Probes (Eugene, Oreg.) were 5-iodoacetamidofluorescein (fluorescein); N-(1-pyrene) iodoacetamide (pyrene); N,N′-dimethyl-N-(iodoacetyl)-N′-(7-nitrobenz-2-oxa-1,3-diazol-4-yl)ethylenediamide (NBD); N-((2-(iodoacetoxy)ethyl)-N-methyl)amino-7-nitrobenz-2-oxa-1,3-diazole (NBDE); and 6-acryloyl-2-dimethylaminonaphthalene (acrylodan). The styryl and naphthyl dyes JPW4039, JPW4042, and JPW4045 (FIG. 3) were synthesized at the University of Connecticut. All fluorophore conjugation steps were typically carried out at room temperature. To protein at a concentration of 100 μM was added tris-(2-carboxyethyl)phosphine HCl to a five-fold molar excess to reduce intermolecular disulfide bonds. A thiol-reactive fluorophore (20 to 25 mM in acetonitrile or dimethyl sulfoxide) was added in small aliquots to a five-fold molar excess over protein. Conjugation proceeded in the dark at room temperature for 4 hours, or overnight at 4° C. Separation of protein from unreacted fluorophore was achieved by exhaustive dialysis or by size-exclusion chromatography. The efficiency of reporter group attachment was assessed by determination of unreacted thiol with Ellman's reagent (Ellman, Arch. Biochem. Biophys. 74:443-450, 1958) or by measuring the ratio of fluorophore to protein from absorbance spectra of the purified conjugate.\n(§3) Fluorimetry. All measurements were conducted with an SLM Aminco-Bowman series 2 fluorimeter, with sample stirring at 25° C. Fluorescence emission spectra were acquired with excitation and emission slit widths of 4 and 8 nm, respectively. Photomultiplier tube potential was maintained between 400 and 800 volts. Protein concentrations were in the range of 50 to 1000 nM. Fluorophore-specific excitation was at the following approximate wavelengths: tryptophan, 290 nm; acrylodan, 390 nm; fluorescein, 485 nm; pyrene, 340 nm; NBD and NBDE, 490 nm; JPW4039, 485 nm; JPW4042, 470 nm; JPW4045, 470 nm.\n(§4) Corrections were made for dilution of the protein and for background signal from buffer. Binding curves were fit to binding isotherms using equation 3 or 4, as appropriate.\nAnalyte affinity measurements."}, "[2]": {"biological_target": "T1, E. coli glutamate/aspartate binding protein (YBEJ, SEQ ID NO:3) variant T129C, fluorophore conjugate (Escherichia coli, UniProt P37902, T129C)", "T1 construct": "The underlined methionine is the initiation codon for expression of YBEJ used in the study; initiation methionine (N); Gly-Ser-Gly-(His)n or Gly-Ser-(His)n (C); made in house; host or cells: E. coli BL21-DE3", "T1 sequence (P37902 other isoform, or with tags, fused parts or gaps T129C)": "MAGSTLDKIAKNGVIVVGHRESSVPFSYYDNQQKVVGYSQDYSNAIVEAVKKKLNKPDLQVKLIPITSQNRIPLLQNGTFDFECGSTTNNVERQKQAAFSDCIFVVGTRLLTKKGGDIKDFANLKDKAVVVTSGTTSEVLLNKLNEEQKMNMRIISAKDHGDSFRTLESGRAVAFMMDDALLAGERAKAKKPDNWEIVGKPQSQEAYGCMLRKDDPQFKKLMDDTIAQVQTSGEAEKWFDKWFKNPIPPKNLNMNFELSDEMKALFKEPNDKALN", "assay": "Fluorimetric titration of fluorophore conjugates", "settings": "T129C-NBD", "excerpt": "as §1, §2, §3, §4\n(§5) Analyte affinity measurements. […] The emission wavelength monitored was that of maximum difference in intensity between the ligand-free and bound states. For each conjugate, fluorescence intensiometric observations were fit to a hyperbolic binding isotherm for a two-state model (Marvin et al., Proc. Natl. Acad. Sci. USA 94:4366-4371, 1997): […]"}, "[3]": {"biological_target": "T2, E. coli glutamate/aspartate binding protein (YBEJ, SEQ ID NO:3) variant Q123C, fluorophore conjugate (Escherichia coli, UniProt P37902, Q123C)", "T2 construct": "The underlined methionine is the initiation codon for expression of YBEJ used in the study; initiation methionine (N); Gly-Ser-Gly-(His)n or Gly-Ser-(His)n (C); made in house; host or cells: E. coli BL21-DE3", "T2 sequence (P37902 other isoform, or with tags, fused parts or gaps Q123C)": "as the sequence (P37902 other isoform, or with tags, fused parts or gaps T129C) above, with Q96C, C102T counted along it", "assay": "Fluorimetric titration of fluorophore conjugates", "excerpt": "as §1, §2, §3, §4, §5"}, "[4]": {"biological_target": "T3, E. coli sulfate binding protein (SBP), fluorophore-conjugated cysteine mutants (Escherichia coli, UniProt P0AG78)", "T3 construct": "several single-Cys mutants with fluorophores", "T3 sequence (P0AG78 20-329, change not shown)": "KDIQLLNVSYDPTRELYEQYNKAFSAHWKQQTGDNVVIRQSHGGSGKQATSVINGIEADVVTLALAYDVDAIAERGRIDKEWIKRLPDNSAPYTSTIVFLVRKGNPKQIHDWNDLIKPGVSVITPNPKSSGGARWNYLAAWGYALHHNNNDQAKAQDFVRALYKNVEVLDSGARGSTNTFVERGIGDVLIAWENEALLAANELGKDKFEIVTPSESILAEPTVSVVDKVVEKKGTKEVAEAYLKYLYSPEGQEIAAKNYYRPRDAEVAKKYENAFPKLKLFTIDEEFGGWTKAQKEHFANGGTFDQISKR", "assay": "Ligand affinity of sulfate BP fluorescent conjugates (Kd range)", "settings": "range over conjugates, n=8", "excerpt": "Molecular Cloning. […] Amplified products were cloned into one of the protein expression vectors pAED4 (Doering, “Functional and structural studies of a small f-actin binding domain” in Ph.D. thesis, Massachusetts Institute of Technology, 1992); pKK223-3 (Brosius & Holy, Proc. Natl. Acad. Sci. USA 81:6929-6933, 1984); or pET vectors (Studier et al., Meth. Enzymol. 185:60-89, 1990) (Novagen). N-terminal oligonucleotide primers were designed to clone only the processed periplasmic form, deleting the signal sequence. The C-terminal primer was designed to append the sequence Gly-Ser-Gly-(His)n or Gly-Ser-(His)n, where n=5, 6, or 10. Two tandem stop codons (TAATGA) follow the last His codon. […] Additionally the sequence of Fe(III) BP was mutated by substitution of Glu57 with Asp to raise the Kd to a concentration range conveniently measured using Fe(III) citrate.\nFluorophore conjugation to cysteine-substituted bPBPs. […] The efficiency of reporter group attachment was assessed by determination of unreacted thiol with Ellman's reagent (Ellman, Arch. Biochem. Biophys. 74:443-450, 1958) or by measuring the ratio of fluorophore to protein from absorbance spectra of the purified conjugate. […]\nFluorimetry. […] Fluorescence emission spectra were acquired with excitation and emission slit widths of 4 and 8 nm, respectively. […]"}, "[5]": {"biological_target": "T4, E. coli sulfate binding protein variant R134C, fluorophore conjugate (Escherichia coli, UniProt P0AG78, R153C)", "T4 construct": "Gly-Ser-Gly-(His)n or Gly-Ser-(His)n, n=5, 6 or 10 (C); initiator methionine (N); made in house; host or cells: E. coli strain BL21-DE3", "T4 sequence (P0AG78 20-329 R153C)": "as the sequence (P0AG78 20-329, change not shown) above, with R134C counted along it", "assay": "Fluorimetric titration of fluorophore conjugates", "excerpt": "as §1, §2\n(§6) Sulfate BP buffer (20 mM Tris-HCl, pH 8.0) was passed through the chloride form of Dowex 1X2-100 strongly basic anion-exchange resin. Sulfate BP solutions were treated by dialysis against treated buffer; Dowex resin held in a separate dialysis tube was also included.\nas §3, §4\n(§7) Analyte affinity measurements. […] The emission wavelength monitored was that of maximum difference in intensity between the ligand-free and bound states."}, "[6]": {"biological_target": "T5, E. coli sulfate binding protein variant Q294C, fluorophore conjugate (Escherichia coli, UniProt P0AG78, Q313C)", "T5 construct": "Gly-Ser-Gly-(His)n or Gly-Ser-(His)n, n=5, 6 or 10 (C); initiator methionine (N); made in house; host or cells: E. coli strain BL21-DE3", "T5 sequence (P0AG78 20-329 Q313C)": "as the sequence (P0AG78 20-329, change not shown) above, with Q294C counted along it", "assay": "Fluorimetric titration of fluorophore conjugates", "settings": "JPW4042 conjugate, ligand sulfate", "excerpt": "as §1, §2, §6, §3, §4, §7"}, "[7]": {"biological_target": "T6, E. coli sulfate binding protein variant L65C, fluorophore conjugate (Escherichia coli, UniProt P0AG78, L84C)", "T6 construct": "Gly-Ser-Gly-(His)n or Gly-Ser-(His)n, n=5, 6 or 10 (C); initiator methionine (N); made in house; host or cells: E. coli strain BL21-DE3", "T6 sequence (P0AG78 20-329 L84C)": "as the sequence (P0AG78 20-329, change not shown) above, with L65C counted along it", "assay": "Fluorimetric titration of fluorophore conjugates", "settings": "Fluorescein conjugate, ligand sulfate", "excerpt": "as §1, §2, §6, §3, §4, §7"}, "[8]": {"biological_target": "T7, E. coli sulfate binding protein variant W290C, fluorophore conjugate (Escherichia coli, UniProt P0AG78, W309C)", "T7 construct": "Gly-Ser-Gly-(His)n or Gly-Ser-(His)n, n=5, 6 or 10 (C); initiator methionine (N); made in house; host or cells: E. coli strain BL21-DE3", "T7 sequence (P0AG78 20-329 W309C)": "as the sequence (P0AG78 20-329, change not shown) above, with W290C counted along it", "assay": "Fluorimetric titration of fluorophore conjugates", "settings": "JPW4042 conjugate, ligand sulfate", "excerpt": "as §1, §2, §6, §3, §4, §7"}}, "data": [{"smiles": "OC[C@H]1OC(O)[C@H](O)[C@@H](O)[C@@H]1O", "note": "(stereo partly drawn) [glucose]", "values": [{"measurement": "Kd", "setting": "[1]; Kd, Acrylodan conjugate, endosteric site", "value": 5.98, "unit": "mM"}, {"measurement": "Kd", "setting": "[1]; Kd, Fluorescein conjugate, endosteric site", "value": 17.6, "unit": "mM"}, {"measurement": "Kd", "setting": "[1]; appKd, W183C-acrylodan, ratiometric, F450-459/F486-495", "value": "~10.4", "unit": "mM"}, {"measurement": "Kd", "setting": "[1]; appKd, W183C-acrylodan, ratiometric, F450-459/F550-559", "value": "~5", "unit": "mM"}, {"measurement": "Kd", "setting": "[1]; appKd, W183C-acrylodan, ratiometric, F472-481/F450-459", "value": "~17.4", "unit": "mM"}, {"measurement": "Kd", "setting": "[1]; dissociation constant, W183C-acrylodan", "value": 5.98, "unit": "mM"}]}, {"smiles": "NC(=O)C[C@H](N)C(=O)O", "note": "[asparagine]", "values": [{"measurement": "Kd", "setting": "[2]", "value": 5.4, "unit": "µM"}, {"measurement": "Kd", "setting": "[3]", "value": 96, "unit": "µM"}]}, {"smiles": "O=S(=O)(O)O", "note": "[sulfate]", "values": [{"measurement": "Kd", "setting": "[4]", "value": "0.32 to 29", "unit": "µM"}, {"measurement": "Kd", "setting": "[5]; Acrylodan conjugate, R134C, ligand sulfate", "value": 4.17, "unit": "µM"}, {"measurement": "Kd", "setting": "[5]; Fluorescein conjugate, R134C, ligand sulfate", "value": 0.323, "unit": "µM"}, {"measurement": "Kd", "setting": "[5]; JPW4039 conjugate, R134C, ligand sulfate", "value": 7.5, "unit": "µM"}, {"measurement": "Kd", "setting": "[5]; JPW4042 conjugate, R134C, ligand sulfate", "value": 29.1, "unit": "µM"}, {"measurement": "Kd", "setting": "[5]; NBD conjugate, R134C, ligand sulfate", "value": 22.4, "unit": "µM"}, {"measurement": "Kd", "setting": "[5]; R134C-acrylodan", "value": "~4", "unit": "µM"}, {"measurement": "Kd", "setting": "[6]", "value": 830, "unit": "nM"}, {"measurement": "Kd", "setting": "[7]", "value": 1090, "unit": "nM"}, {"measurement": "Kd", "setting": "[8]", "value": 336, "unit": "nM"}]}]}
